Drawing on PubChem BioAssay AID743402 (Broad Institute, 2014), this text covers AC35 for 64 molecules.

Structures are written as SMILES.

The subject of this experiment is FRT CFTR-F508del YFP iodide quenching, 24 h. The experiment can be described thus: CFTR-F508del correctors, dose response, FRT cells, YFP quenching, cherry-pick (AID 743402).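 Note: compounds act as correctors raising surface CFTR-F508del before acute activation.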
Where [1] appears, read: channel opened with forskolin and a potentiator.

As to `C[n+]1c2cc(N)ccc2cc2ccc(N)cc21`, the AC35 was 0.19 µM. Also, under setting [1], the AC35 was 0.51 µM.
For the molecule `COc1ccc([C@H]2CC(=O)C=C(c3ccc(OC)cc3OC)C2)cc1`, the AC35 under setting [1] was 25 µM.
`O=C(Nc1cccc(F)c1)N1CCCCN2[C@@H](CO)[C@H](c3ccc(C#Cc4ccccc4)cc3)[C@@H]2C1`: the AC35 under setting [1] was 19.7 µM.
With `COc1cccc(Nc2nc(-c3sc(NC(=O)c4ccccc4)nc3C)cs2)c1`, the AC35 under setting [1] is 4.43 µM.
Same read-out and setting: in the case of `CCCC#Cc1ccc([C@H]2[C@H](CO)N3C(=O)CN(C(=O)Nc4cc(F)ccc4F)C[C@@H]23)cc1` it was 23.3 µM.
For `O=[N+]([O-])c1ccc(/C=C/C2=NN(c3ccccc3)C(c3ccco3)C2)o1` (stereo not given), under setting [1], the AC35 is 2.93 µM.
On to `c1ccc2c(NCCCN3CCOCC3)c3ccccc3nc2c1`, for which the AC35 under setting [1] is 16.6 µM.
`CCOC(=O)C1CCCN(c2ccc([N+](=O)[O-])c3nonc23)C1` (stereo not given): the AC35 under setting [1] was 5.34 µM.
Regarding `Nc1ccc2c3c(cccc13)C(=O)N(c1ccccc1)C2=O`, the AC35 under setting [1] was 1.93 µM.
Consider `Cc1ccc(S(=O)(=O)Nc2ccc3c(c2)CC(=O)N([C@@H](C)CO)C[C@@H](C)[C@@H](CN(C)Cc2ccc(Cl)c(Cl)c2)O3)cc1`, for which, under setting [1], the AC35 was 22.6 µM.
Turning to `COc1ccc(OC)c(Nc2nc(-c3sc(NC(=O)C(C)(C)C)nc3C)cs2)c1`, the AC35 under setting [1] is 0.908 µM.
On to `C[C@@H]1CCCCO[C@H](CN(C)Cc2ccc(Cl)c(Cl)c2)[C@@H](C)CN([C@@H](C)CO)C(=O)c2cc(NS(=O)(=O)c3ccc(Cl)cc3)ccc2O1`, for which, under setting [1], the AC35 was 23.5 µM.
Regarding `COc1ccc(S(=O)(=O)Nc2ccc3c(c2)C(=O)N([C@@H](C)CO)C[C@@H](C)[C@H](CN(C)Cc2ccc(Oc4ccccc4)cc2)O3)cc1`, the AC35 under setting [1] is 1.52 µM.
Same read-out and setting: in the case of `CCN(CC)CCn1c2ccccc2c2nc3ccccc3nc21` it was 17.3 µM.
Still for that read-out and setting: in the case of `CCCOc1cc(N(CC)CC)ccc1/C=C(/C#N)c1nc2ccc(C)cc2[nH]1` it was 0.505 µM; in that of `CCN(CC)CCCNc1ccc2ncn3c4ccc(O)cc4c(=O)c1c23`, 4.01 µM.
Same read-out and setting: with `Cc1cc(C)c(/C=C2\C(=O)Nc3ccccc32)[nH]1` the figure was 3.24 µM; with `CN1c2ccc(-c3ccc(F)cc3)cc2[C@H]2[C@H](CCN2S(=O)(=O)c2ccc(F)cc2)[C@H]1CO`, 21.9 µM.
For `COc1ccccc1Nc1nc(-c2sc(NC(=O)C(C)(C)C)nc2C)cs1`, the AC35 under setting [1] was 3.51 µM.
As to `Cc1cc2[nH]c3c(c[n+](C)c4ccccc34)c2cc1C`, under setting [1], the AC35 is 13.4 µM.
With `O=C1/C(=C\c2cc(Cl)c(O)c(Cl)c2)SC(=S)N1Cc1ccccc1`, the AC35 under setting [1] was 0.214 µM.
Turning to `C=CCCC(=O)Nc1nc(C)c(-c2csc(Nc3cc(OC)ccc3OC)n2)s1`, the AC35 under setting [1] is 4.51 µM.
As for `Nc1ccc2ccc3cccc[n+]3c2c1`, the AC35 is 7.53 µM.
`O=[N+]([O-])c1ccc(Sc2cccc[n+]2[O-])c2nonc12`: the AC35 under setting [1] was 4.93 µM.
As for `COC(=O)c1cc2c(=O)c3ccccc3oc2nc1/C=C/N(C)C`, the AC35 under setting [1] is 0.544 µM.
As for `C[C@H]1CN([C@@H](C)CO)S(=O)(=O)c2ccc(C#Cc3ccc(F)cc3)cc2O[C@H]1CN(C)C(=O)NC1CCCCC1`, the AC35 under setting [1] is 22.6 µM.
Turning to `COc1cccc(S(=O)(=O)N2C[C@@H]3N[C@H](C2)C3c2ccc(-c3ccccc3F)cc2)c1` (stereo not given in full), under setting [1], the AC35 was 24.5 µM.
Consider `Nc1c2ccccc2nc2ccccc12`, for which the AC35 under setting [1] was 12.9 µM.
In the case of `Cc1ccnc(N2C(=O)c3cccc4c([N+](=O)[O-])ccc(c34)C2=O)c1`, the AC35 under setting [1] was 7.01 µM.
Regarding `CCOC1=C/C(=C/c2c(N)n3nc(S(=O)(=O)CC)sc3nc2=O)C=CC1=O`, the AC35 under setting [1] is 9.92 µM.
As to `C=C1SC(Nc2c(C)cc(C)cc2C)=NC12CCCCC2`, the AC35 under setting [1] was 3.59 µM.
`CN(C)CCNc1ccc2ncn3c4ccc(O)cc4c(=O)c1c23`: under setting [1], the AC35 is 8.57 µM.
As for `c1ccc2c(c1)C1=NCCN1c1ccccc1-2`, the AC35 under setting [1] is 8.91 µM.
For the molecule `COc1ccc(-c2cnc3c(NC=O)cc(-c4ccccc4)cn23)cc1OC`, the AC35 under setting [1] was 10.4 µM.
Take `COc1ccccc1N1CCN(C(=O)c2ccc(-c3ccc(Cl)cc3)o2)CC1`: the AC35 under setting [1] is 7.37 µM.
With `OC[C@@H]1[C@@H](c2ccccc2)C2(CN(Cc3ccccc3F)C2)N1Cc1ccccc1F`, the AC35 under setting [1] was 23.1 µM.
`CCOC(=O)/C(=C/C=C1\Sc2cc(C)c(C)cc2N1CC)C(C)=O`: the AC35 under setting [1] is 3.13 µM.
As to `CCN(CC)c1ccc(/C=C(/C#N)c2nc3ccc(C)cc3[nH]2)c(OC(C)C)c1`, the AC35 under setting [1] is 0.796 µM.
As for `COC(=O)Cn1c(=NC(=O)c2cc(-c3cccs3)nc3ccccc23)sc2cc(S(N)(=O)=O)ccc21`, under setting [1], the AC35 is 9.92 µM.
In the case of `CCCCN1C(=O)/C(=C/C=C2\Oc3ccccc3N2CC)SC1=S`, the AC35 under setting [1] was 1.64 µM.
With `O=C1c2cccc3c([N+](=O)[O-])ccc(c23)C(=O)N1Cc1cccnc1`, under setting [1], the AC35 is 9.18 µM.
On to `COc1cc(/C=C2\SC(=Nc3ccc(Cl)c(C(=O)O)c3)NC2=O)c(Br)c(Br)c1O`, for which the AC35 under setting [1] was 2.19 µM.
`CN(C)CCNC(=O)c1ccc(Cl)c2cc3ccccc3nc12`: the AC35 under setting [1] is 9.45 µM.
For the molecule `CNc1c2cccc(C)c2nc2c(C(=O)NCCN(C)C)cccc12`, the AC35 under setting [1] is 10.5 µM.
As for `N#C/C(=C\c1ccccn1)c1nc2ccccc2s1`, the AC35 under setting [1] was 3.38 µM.
Still for that read-out and setting: with `COc1c(C=O)c2c(c(OC)c1OC)-c1ccc(OC)c(=O)cc1C(NC(C)=O)CC2` (stereo not given) the figure was 20.9 µM; with `CC(C)N1CCc2c(sc(NC(=O)c3ccc([N+](=O)[O-])o3)c2C(N)=O)C1`, 6.42 µM; with `COC(C(=O)C(O)C(C)O)C1Cc2cc3cc(OC4CC(OC5CC(O)C(O)C(C)O5)C(O)C(C)O4)c(C)c(O)c3c(O)c2C(=O)C1OC1CC(OC2CC(OC3CC(O)C(OC)C(C)O3)C(O)C(C)O2)C(O)C(C)O1` (stereo not given), 0.583 µM.
On to `CN1/C(=C\C=C2/SC(=S)NC2=O)C(C)(C)c2ccccc21`, for which, under setting [1], the AC35 was 2.6 µM.
Consider `N#Cc1ccc(-c2ccc3c(c2)[C@H]2[C@H](CCN2S(=O)(=O)c2ccccc2F)[C@@H](CO)N3)cc1`, for which, under setting [1], the AC35 is 21.3 µM.
On to `CCN(CC)C1=CC2=CC(=C(C#N)C#N)CCC2CC1` (stereo not given), for which the AC35 under setting [1] is 0.0855 µM.
`CN1C(=O)c2cccc3c(N)ccc(c23)C1=O`: under setting [1], the AC35 was 2.62 µM.
With `CCN1/C(=C/c2ccc3cc(C)cc(C)c3[n+]2CC)Sc2cc(C)ccc21`, the AC35 under setting [1] is 1.05 µM.
With `COc1cccc2c1C(=O)c1c(O)c3c(c(O)c1C2=O)C[C@@](O)(C(C)=O)C[C@@H]3O[C@H]1C[C@H](N)[C@H](O)[C@H](C)O1`, under setting [1], the AC35 was 0.856 µM.
Still for that read-out and setting: in the case of `CC1(S(=O)(=O)O)CC(=O)c2ccccc2C1=O` (stereo not given) it was 6 µM.
Regarding `C=C1C(=O)O[C@@H]2C[C@@H](C)[C@@H]3C=CC(=O)[C@@]3(C)[C@@H](O)[C@H]12`, the AC35 was 5.32 µM.
`N#C/C(=C/c1ccc(N2CCCCC2)o1)C(=O)Nc1ccc2ccccc2c1`: the AC35 under setting [1] is 2.37 µM.
The same measure, in the same setting: in the case of `CC(=NNC(=O)c1ccncc1)c1ccc2ccccc2c1O` it was 4.3 µM; in that of `CCCC(=O)NC1=C(Cl)C(=O)c2ccccc2C1=O`, 7.72 µM.
Still for that read-out and setting: in the case of `O=C1c2cccc(NCCCNCCO)c2C(=O)c2cccc(NCCCNCCO)c21` it was 5.19 µM; in that of `O=S(=O)(c1ccc(F)cc1)N1CC[C@@H]2[C@@H](CO)Nc3ccc(-c4ccc(F)cc4)cc3[C@@H]21`, 17.7 µM.
The same measure, in the same setting: with `N#CC(C#N)=C1C=C2C=C(N3CCCCCC3)CCC2CC1` (stereo not given) the figure was 0.0871 µM; with `COc1cc(OC)c(-c2c3cc(O)c(=O)cc-3oc3cc(O)c(O)cc23)cc1OC`, 4.15 µM.
As for `C#C[C@]1(O)CC[C@H]2[C@@H]3CCc4cc(OC5CCCC5)ccc4[C@H]3CC[C@@]21C`, under setting [1], the AC35 is 25.1 µM.
